According to patent US7058616B1, “Method and system for predicting resistance of a disease to a therapeutic agent using a neural network” (Virco Bvba, priority 2000, dated 2006):

Test system: HIV-1
Assay: MT-4 cell viral cytopathic effect protection assay, phenotypic susceptibility of patient recombinant virus
Assay type: cell-based
Protocol: Phenotypic susceptibility was determined using a MT-4 cell viral cytopathic effect protection assay. See, e.g., Kashiwase et al., Chemotherapy 45(1):48–55 (1999), expressly incorporated herein by reference; Larder et al., Antimicrob. Agents Chemother. 43(8):1961–1967 (1999).

## CC(C)(C)NC(=O)[C@@H]1CN(Cc2cccnc2)CCN1C[C@@H](O)C[C@@H](Cc1ccccc1)C(=O)N[C@H]1c2ccccc2C[C@H]1O [Indinavir]
PI test sample 4
  actual phenotype resistance level: R/R (if the value is greater than 10, it is considered to be ‘resistant’)
PI test sample 5
  actual phenotype resistance level: R (if the value is greater than 10, it is considered to be ‘resistant’)
PI test sample 6
  actual phenotype resistance level: S/S (A fold resistance of less than or equal to 4 is considered to be ‘sensitive’)
PI test sample 7
  actual phenotype resistance level: S/S (A fold resistance of less than or equal to 4 is considered to be ‘sensitive’)
PI test sample 8
  actual phenotype resistance level: S/S (A fold resistance of less than or equal to 4 is considered to be ‘sensitive’)
PI test sample 9
  actual phenotype resistance level: S/S (A fold resistance of less than or equal to 4 is considered to be ‘sensitive’)
PI test sample 10
  actual phenotype resistance level: S/S (A fold resistance of less than or equal to 4 is considered to be ‘sensitive’)
PI test sample 11, listed as IDV
  actual phenotype resistance level: S (A fold resistance of less than or equal to 4 is considered to be ‘sensitive’)
PI test sample 12
  actual phenotype resistance level: S/S (A fold resistance of less than or equal to 4 is considered to be ‘sensitive’)
PI test sample 13
  actual phenotype resistance level: R/R (if the value is greater than 10, it is considered to be ‘resistant’)
PI test sample 14
  actual phenotype resistance level: R/R (if the value is greater than 10, it is considered to be ‘resistant’)
PI test sample 16
  actual phenotype resistance level: R/R (if the value is greater than 10, it is considered to be ‘resistant’)
PI test sample 17
  actual phenotype resistance level: R/R (if the value is greater than 10, it is considered to be ‘resistant’)
PI test sample 22
  actual phenotype resistance level: S (A fold resistance of less than or equal to 4 is considered to be ‘sensitive’)
PI test sample 23
  actual phenotype resistance level: R/R (if the value is greater than 10, it is considered to be ‘resistant’)
PI test sample 24
  actual phenotype resistance level: R/R (if the value is greater than 10, it is considered to be ‘resistant’)
PI test sample 26
  actual phenotype resistance level: R/R (if the value is greater than 10, it is considered to be ‘resistant’)
PI test sample 27
  actual phenotype resistance level: R/R (if the value is greater than 10, it is considered to be ‘resistant’)
PI test sample 28
  actual phenotype resistance level: R/R (if the value is greater than 10, it is considered to be ‘resistant’)
PI test sample 32
  actual phenotype resistance level: R/R (if the value is greater than 10, it is considered to be ‘resistant’)
PI test sample 35
  actual phenotype resistance level: R/R (if the value is greater than 10, it is considered to be ‘resistant’)
PI test sample 36
  actual phenotype resistance level: R/R (if the value is greater than 10, it is considered to be ‘resistant’)
PI test sample 37
  actual phenotype resistance level: I/I (greater than 4 and less than 10 is considered to be ‘intermediate’)
PI test sample 38
  actual phenotype resistance level: R/R (if the value is greater than 10, it is considered to be ‘resistant’)
PI test sample 39
  actual phenotype resistance level: R/R (if the value is greater than 10, it is considered to be ‘resistant’)
PI test sample 40
  actual phenotype resistance level: R/R (if the value is greater than 10, it is considered to be ‘resistant’)
PI test sample 43
  actual phenotype resistance level: I/I (greater than 4 and less than 10 is considered to be ‘intermediate’)
PI test sample 45
  actual phenotype resistance level: R/R (if the value is greater than 10, it is considered to be ‘resistant’)
PI test sample 46
  actual phenotype resistance level: R/R (if the value is greater than 10, it is considered to be ‘resistant’)
PI test sample 47, listed as IDV
  actual phenotype resistance level: R/R (if the value is greater than 10, it is considered to be ‘resistant’)
PI test sample 48
  actual phenotype resistance level: R/R (if the value is greater than 10, it is considered to be ‘resistant’)
PI test sample 49
  actual phenotype resistance level: R/R (if the value is greater than 10, it is considered to be ‘resistant’)
PI test sample 51
  actual phenotype resistance level: R/R (if the value is greater than 10, it is considered to be ‘resistant’)
PI test sample 53
  actual phenotype resistance level: R/R (if the value is greater than 10, it is considered to be ‘resistant’)
Table 3 testing sample 1
  actual phenotype resistance level: S/S (A fold resistance of less than or equal to 4 is considered to be “sensitive,”)
Table 3 testing sample 2
  actual phenotype resistance level: S/S (A fold resistance of less than or equal to 4 is considered to be “sensitive,”)
Table 3 testing sample 5
  actual phenotype resistance level: R/R (if the value is greater than 10, it is considered to be “resistant.”)
Table 3 testing sample 7
  actual phenotype resistance level: S/S (A fold resistance of less than or equal to 4 is considered to be “sensitive,”)
Table 3 testing sample 9
  actual phenotype resistance level: S/S (A fold resistance of less than or equal to 4 is considered to be “sensitive,”)
Table 3 testing sample 10
  actual phenotype resistance level: S (A fold resistance of less than or equal to 4 is considered to be “sensitive,”)
Table 13/14 sample 2: 10I,46I,48V,77I,82A,90M, 10E,58E,63T
  actual phenotype: S (A fold resistance of less than or equal to 4 is considered to be ‘sensitive’)
Table 13/14 sample 8: 10I,54V,71V,73S,84V,90M, 33M,63P
  actual phenotype: I (greater than 4 and less than 10 is considered to be ‘intermediate’)
Table 13/14 sample 13: 10I,36I,71T,90M, 63P,73T
  actual phenotype: I (greater than 4 and less than 10 is considered to be ‘intermediate’)
Table 13/14 sample 14: 10I,46I,71T,77I,90M, 57K,63P,93L
  actual phenotype: S (A fold resistance of less than or equal to 4 is considered to be ‘sensitive’)
Table 13/14 sample 17: 46I,77I,90M, 10F,20L,63P
  actual phenotype: I (greater than 4 and less than 10 is considered to be ‘intermediate’)
Table 13/14 sample 18: 36I,71T,90M, 63P,93L
  actual phenotype: S (A fold resistance of less than or equal to 4 is considered to be ‘sensitive’)
Table 13/14 sample 20: 77I,88S, 13V, 63P, 93L
  actual phenotype: S (A fold resistance of less than or equal to 4 is considered to be ‘sensitive’)
Table 13/14 sample 21: 10I,77I,84V,90M, 63Q
  actual phenotype: I (greater than 4 and less than 10 is considered to be ‘intermediate’)
Table 13/14 sample 22: 10I,20R,36I,71V,73S,84V,90M, 13V,63P
  actual phenotype: R (if the value is greater than 10, it is considered to be ‘resistant’)

## CC(C)(C)NC(=O)[C@@H]1C[C@@H]2CCCC[C@@H]2CN1C[C@@H](O)[C@H](Cc1ccccc1)NC(=O)[C@H](CC(N)=O)NC(=O)c1ccc2ccccc2n1 [Saquinavir]
Table 13/14 sample 1: 10I,71V,73S,84V,90M, 63P,85V,93L
  actual phenotype: R (if the value is greater than 10, it is considered to be ‘resistant’)
Table 13/14 sample 9: 10I,46L,54V,71V,82A,90M, 63P,93L
  actual phenotype: S (A fold resistance of less than or equal to 4 is considered to be ‘sensitive’)
Table 13/14 sample 11: 10I,46L,54V,71V,77I,82A,90M, 55R,58E,63P,93L
  actual phenotype: R (if the value is greater than 10, it is considered to be ‘resistant’)
Table 13/14 sample 19: 54V,71V,82A, 63P,93L
  actual phenotype: I (greater than 4 and less than 10 is considered to be ‘intermediate’)

## Nc1nc(NC2CC2)c2ncn([C@H]3C=C[C@@H](CO)C3)c2n1 [1592 U89]
Table 3 testing sample 1
  actual phenotype resistance level: S/S (A fold resistance of less than or equal to 4 is considered to be “sensitive,”)
Table 3 testing sample 2
  actual phenotype resistance level: S (A fold resistance of less than or equal to 4 is considered to be “sensitive,”)
Table 3 testing sample 3
  actual phenotype resistance level: S/S (A fold resistance of less than or equal to 4 is considered to be “sensitive,”)
Table 3 testing sample 4
  actual phenotype resistance level: S/S (A fold resistance of less than or equal to 4 is considered to be “sensitive,”)
Table 3 testing sample 5
  actual phenotype resistance level: S/S (A fold resistance of less than or equal to 4 is considered to be “sensitive,”)
Table 3 testing sample 6
  actual phenotype resistance level: I (greater than 4 and less than 10 is considered to be “intermediate,”)
Table 3 testing sample 7
  actual phenotype resistance level: S/S (A fold resistance of less than or equal to 4 is considered to be “sensitive,”)
Table 3 testing sample 8
  actual phenotype resistance level: I (greater than 4 and less than 10 is considered to be “intermediate,”)
Table 3 testing sample 9
  actual phenotype resistance level: S/S (A fold resistance of less than or equal to 4 is considered to be “sensitive,”)
Table 3 testing sample 10
  actual phenotype resistance level: S/S (A fold resistance of less than or equal to 4 is considered to be “sensitive,”)
